In patent US9682976B2, “Protein kinase C inhibitors and uses thereof” (Rigel Pharmaceuticals, Inc., priority 2012, dated 2017):

system: PKC mediated IL-2 production; assay: IL-2 ELISA, human primary T cell, anti CD3+CD28+; type: cell-based; details: Homo sapiens, T-cell, 24 h, human primary T cells stimulated with αCD3 and αCD28, 24 hours
In short: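 IL-2 was quantified by ELISA in 24 h supernatants from primary human T cells given a 1 h compound pre-treatment at 37° C. These cells had been expanded from blood mononuclear cells on αCD3/αCD28 with IL-2, and the IL-2 was removed by washing. Stimulation used plate-bound αCD3 ([…]) plus αCD28 (5 μg/ml); the counter assay used PMA (0.5 ng/ml) with ionomycin (0.1 uM) instead.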

Compound | EC50 [nM]
CC1(C)Oc2ccc(Nc3ncc(F)c(N[C@@H]4C[C@@H]5CCCN5C(C)(C)C4)n3)cc2O1 [Compound 157, N2-(2,2-dimethylbenzo[d][1,3]dioxol-5-yl)-N4-((7R,8aS)-5,5-dimethyloctahydroindolizin-7-yl)-5-fluoropyrimidine-2,4-diamine] | 1000 to 10000
COCCOc1cc(F)c(Nc2ncc(F)c(N[C@@H]3C[C@@H]4CCCN4C(C)(C)C3)n2)cc1-n1nnn(C)c1=O [Compound 158, 1-(5-((4-(((7R,8aS)-5,5-dimethyloctahydroindolizin-7-yl)amino)-5-fluoropyrimidin-2-yl)amino)-4-fluoro-2-(2-methoxyethoxy)phenyl)-4-methyl-1,4-dihydro-5H-tetrazol-5-one] | 100 to 500
COCCOc1ccc(Nc2ncc(F)c(N[C@@H]3C[C@@H]4CCCN4C(C)(C)C3)n2)c(F)c1OCCOC [Compound 160, N4-((7R,8aS)-5,5-dimethyloctahydroindolizin-7-yl)-5-fluoro-N2-(2-fluoro-3,4-bis(2-methoxyethoxy)phenyl)pyrimidine-2,4-diamine] | 1000 to 10000
CC1(C)C[C@H](Nc2nc(Nc3cc(-n4nnnc4C4CC4)ccc3F)ncc2Cl)C[C@@H]2CCCN21 [Compound 164, 5-chloro-N2-(5-(5-cyclopropyl-1H-tetrazol-1-yl)-2-fluorophenyl)-N4-((7R,8aS)-5,5-dimethyloctahydroindolizin-7-yl)pyrimidine-2,4-diamine] | < 100
Cn1nnn(-c2cc(Nc3ncc(F)c(N[C@@H]4C[C@@H]5CCCN5C(C)(C)C4)n3)c(F)cc2OCC2(CO)COC2)c1=O [Compound 165, 1-(5-((4-(((7R,8aS)-5,5-dimethyloctahydroindolizin-7-yl)amino)-5-fluoropyrimidin-2-yl)amino)-4-fluoro-2-((3-(hydroxymethyl)oxetan-3-yl)methoxy)phenyl)-4-methyl-1,4-dihydro-5H-tetrazol-5-one] | 500 to 1000
Cn1nnn(-c2cc(Nc3ncc(F)c(N[C@@H]4C[C@@H]5CCCN5C(C)(C)C4)n3)c(F)cc2OCC2COC2)c1=O [Compound 166, 1-(5-((4-(((7R,8aS)-5,5-dimethyloctahydroindolizin-7-yl)amino)-5-fluoropyrimidin-2-yl)amino)-4-fluoro-2-(oxetan-3-ylmethoxy)phenyl)-4-methyl-1,4-dihydro-5H-tetrazol-5-one] | 100 to 500
Cn1nnn(-c2cc(Nc3ncc(F)c(N[C@@H]4C[C@@H]5CCCN5C(C)(C)C4)n3)c(F)cc2OCC2CCO2)c1=O (stereo partly drawn) [Compound 167, 1-(5-((4-(((7R,8aS)-5,5-dimethyloctahydroindolizin-7-yl)amino)-5-fluoropyrimidin-2-yl)amino)-4-fluoro-2-(oxetan-2-ylmethoxy)phenyl)-4-methyl-1,4-dihydro-5H-tetrazol-5-one] | 100 to 500
CC1(C)C[C@H](Nc2nc(Nc3ccc(O)c(C#N)c3)ncc2F)C[C@@H]2CCCN21 [Compound 168, 5-((4-(((7R,8aS)-5,5-dimethyloctahydroindolizin-7-yl)amino)-5-fluoropyrimidin-2-yl)amino)-2-hydroxybenzonitrile] | 1000 to 10000
Cn1nnn(-c2cc(Nc3ncc(F)c(N[C@@H]4C[C@@H]5CCCN5C(C)(C)C4)n3)c(F)cc2OCC2COCCO2)c1=O (stereo partly drawn) [Compound 169, 1-(2-((1,4-dioxan-2-yl)methoxy)-5-((4-(((7R,8aS)-5,5-dimethyloctahydroindolizin-7-yl)amino)-5-fluoropyrimidin-2-yl)amino)-4-fluorophenyl)-4-methyl-1,4-dihydro-5H-tetrazol-5-one] | 1000 to 10000
Cn1nnn(-c2cc(Nc3ncc(F)c(N[C@@H]4C[C@@H]5CCCN5C(C)(C)C4)n3)c(F)cc2OCC(=O)C(=O)O)c1=O [Compound 171, 3-(4-((4-(((7R,8aS)-5,5-dimethyloctahydroindolizin-7-yl)amino)-5-fluoropyrimidin-2-yl)amino)-5-fluoro-2-(4-methyl-5-oxo-4,5-dihydro-1H-tetrazol-1-yl)phenoxy)-2-oxopropanoic acid] | > 10000
CC1(COc2ccc(Nc3ncc(F)c(N[C@@H]4C[C@@H]5CCCN5C(C)(C)C4)n3)cc2C#N)COC1 [Compound 173, 5-(4-((7R,8aS)-5,5-dimethyloctahydroindolizin-7-ylamino)-5-fluoropyrimidin-2-ylamino)-2-((3-methyloxetan-3-yl)methoxy)benzonitrile] | 100 to 500
CC1(C)C[C@H](Nc2nc(Nc3ccc(OCC4COC4)c(C#N)c3)ncc2F)C[C@@H]2CCCN21 [Compound 175, 5-(4-((7R,8aS)-5,5-dimethyloctahydroindolizin-7-ylamino)-5-fluoropyrimidin-2-ylamino)-2-(oxetan-3-ylmethoxy)benzonitrile] | 500 to 1000
CC1(C)C[C@H](Nc2nc(Nc3ccc(OCC4CCOCC4)c(C#N)c3)ncc2F)C[C@@H]2CCCN21 [Compound 178, 5-(4-((7R,8aS)-5,5-dimethyloctahydroindolizin-7-ylamino)-5-fluoropyrimidin-2-ylamino)-2-((tetrahydro-2H-pyran-4-yl)methoxy)benzonitrile] | 100 to 500
CC1(C)C[C@H](Nc2nc(Nc3ccc(Br)c(C#N)c3)ncc2F)C[C@@H]2CCCN21 [Compound 180, 2-bromo-5-((4-(((7R,8aS)-5,5-dimethyloctahydroindolizin-7-yl)amino)-5-fluoropyrimidin-2-yl)amino)benzonitrile] | 100 to 500

Results, then the compound that gave them:

EC50 [nM] | Compound
100 to 500 | Cn1nnn(-c2cc(Nc3ncc(F)c(N[C@@H]4C[C@@H]5CCCN5C(C)(C)C4)n3)c(F)cc2OCC2(C)COC2)c1=O [Compound 159, 1-(5-((4-(((7R,8aS)-5,5-dimethyloctahydroindolizin-7-yl)amino)-5-fluoropyrimidin-2-yl)amino)-4-fluoro-2-((3-methyloxetan-3-yl)methoxy)phenyl)-4-methyl-1,4-dihydro-5H-tetrazol-5-one]
500 to 1000 | COc1cc(Nc2ncc(F)c(N[C@@H]3C[C@@H]4CCCN4C(C)(C)C3)n2)cc(OC)c1 [Compound 161, N2-(3,5-dimethoxyphenyl)-N4-((7R,8aS)-5,5-dimethyloctahydroindolizin-7-yl)-5-fluoropyrimidine-2,4-diamine]
100 to 500 | COc1cc(Nc2ncc(Cl)c(N[C@@H]3C[C@@H]4CCCN4C(C)(C)C3)n2)cc(OC)c1 [Compound 162, 5-chloro-N2-(3,5-dimethoxyphenyl)-N4-((7R,8aS)-5,5-dimethyloctahydroindolizin-7-yl)pyrimidine-2,4-diamine]
< 100 | CC1(C)C[C@H](Nc2nc(Nc3ccc(F)c(-n4nnnc4C4CC4)c3)ncc2Cl)C[C@@H]2CCCN21 [Compound 163, 5-chloro-N2-(3-(5-cyclopropyl-1H-tetrazol-1-yl)-4-fluorophenyl)-N4-((7R,8aS)-5,5-dimethyloctahydroindolizin-7-yl)pyrimidine-2,4-diamine]
100 to 500 | Cn1nnn(-c2cc(Nc3ncc(F)c(N[C@@H]4C[C@@H]5CCCN5C(C)(C)C4)n3)c(F)cc2OCC2CCOCC2)c1=O [Compound 170, 1-(5-((4-(((7R,8aS)-5,5-dimethyloctahydroindolizin-7-yl)amino)-5-fluoropyrimidin-2-yl)amino)-4-fluoro-2-((tetrahydro-2H-pyran-4-yl)methoxy)phenyl)-4-methyl-1,4-dihydro-5H-tetrazol-5-one]
100 to 500 | COCCOc1ccc(Nc2ncc(F)c(N[C@@H]3C[C@@H]4CCCN4C(C)(C)C3)n2)cc1C#N [Compound 172, 5-((4-(((7R,8aS)-5,5-dimethyloctahydroindolizin-7-yl)amino)-5-fluoropyrimidin-2-yl)amino)-2-(2-methoxyethoxy)benzonitrile]
500 to 1000 | CC1(C)C[C@H](Nc2nc(Nc3ccc(OCC4(CO)COC4)c(C#N)c3)ncc2F)C[C@@H]2CCCN21 [Compound 174, 5-(4-((7R,8aS)-5,5-dimethyloctahydroindolizin-7-ylamino)-5-fluoropyrimidin-2-ylamino)-2-((3-(hydroxymethyl)oxetan-3-yl)methoxy)benzonitrile]
100 to 500 | CC1(C)C[C@H](Nc2nc(Nc3ccc(OCC4CCO4)c(C#N)c3)ncc2F)C[C@@H]2CCCN21 (stereo partly drawn) [Compound 176, 5-(4-((7R,8aS)-5,5-dimethyloctahydroindolizin-7-ylamino)-5-fluoropyrimidin-2-ylamino)-2-(oxetan-2-ylmethoxy)benzonitrile]
100 to 500 | CC1(C)C[C@H](Nc2nc(Nc3ccc(OCC4COCCO4)c(C#N)c3)ncc2F)C[C@@H]2CCCN21 (stereo partly drawn) [Compound 177, 2-((1,4-dioxan-2-yl)methoxy)-5-(4-((7R,8aS)-5,5-dimethyloctahydroindolizin-7-ylamino)-5-fluoropyrimidin-2-ylamino)benzonitrile]
100 to 500 | CC1(C)C[C@H](Nc2nc(Nc3ccc(OC4COC4)c(C#N)c3)ncc2F)C[C@@H]2CCCN21 [Compound 179, 5-(4-((7R,8aS)-5,5-dimethyloctahydroindolizin-7-ylamino)-5-fluoropyrimidin-2-ylamino)-2-(oxetan-3-yloxy)benzonitrile]
100 to 500 | CC1(C)C[C@H](Nc2nc(Nc3cc(C#N)c(C4CC4)cc3F)ncc2Cl)C[C@@H]2CCCN21 [Compound 181, 5-((5-chloro-4-(((7R,8aS)-5,5-dimethyloctahydroindolizin-7-yl)amino)pyrimidin-2-yl)amino)-2-cyclopropyl-4-fluorobenzonitrile]
< 100 | CC1(C)C[C@H](Nc2nc(Nc3ccc(Cl)c(-n4nnnc4C4CC4)c3)ncc2Cl)C[C@@H]2CCCN21 [Compound 182, 5-chloro-N2-(4-chloro-3-(5-cyclopropyl-1H-tetrazol-1-yl)phenyl)-N4-((7R,8aS)-5,5-dimethyloctahydroindolizin-7-yl)pyrimidine-2,4-diamine]
1000 to 10000 | COc1cc(Nc2ncc(Cl)c(N[C@@H]3C[C@@H]4CCCN4C(C)(C)C3)n2)cc(OC)c1OC [Compound 183, 5-chloro-N4-((7R,8aS)-5,5-dimethyloctahydroindolizin-7-yl)-N2-(3,4,5-trimethoxyphenyl)pyrimidine-2,4-diamine]
